Test [1] addresses dopamine D-2 receptor (Rattus norvegicus, UniProt P61169). Kind of test: biochemical. Format: binding. As to conditions: rat caudate, [125I]-p-aminophenylethyl spiroperidol; read-out: D-2 Ki. As for the experimental part: Homogenized rat caudate was the source of the D-2 receptors. […] The molar affinity of the compound for the receptor binding site was calculated by the same method used for the D-1 receptor assay, assuming a competitive interaction between the compound and the radiolabeled ligand.

Test [2] relates to striatal dopamine receptors. Kind of test: Rotation behavior assay of in vivo activity (6-hydroxydopamine lesioned rat rotational model). The note with it: for ED50 s.c. (rotation behavior): injected subcutaneously.
Test [3] has as its system dopamine D-1 receptor. As to conditions: for Intrinsic Activity (adenylate cyclase assay): dopamine = 100, goldfish retina or rat striatum; for EC50: read-out: EC50 (agonist activity in adenylate cyclase assay), tissue from goldfish retina or rat striatum.
Protocol: In order to determine agonist activity, cell-free tissue homogenates are incubated in an ionic buffer solution containing ATP and the compound being evaluated. The tissue was obtained from either goldfish retina or rat striatum.
Test [4] has as its target dopamine D-1 receptor (Rattus norvegicus, UniProt P18901). Kind of test: biochemical. As to conditions: D-1 Ki, rat caudate, [125I]SCH-23982.
Description: The compounds compete with the radiolabeled ligand for occupancy of the receptors and the molar potency of each compound was quantified.
The Ki values are inversely proportional to the affinity of the compound for the receptor.

Sequence of dopamine D-1 receptor (Rattus norvegicus, UniProt P18901) (P18901 whole entry): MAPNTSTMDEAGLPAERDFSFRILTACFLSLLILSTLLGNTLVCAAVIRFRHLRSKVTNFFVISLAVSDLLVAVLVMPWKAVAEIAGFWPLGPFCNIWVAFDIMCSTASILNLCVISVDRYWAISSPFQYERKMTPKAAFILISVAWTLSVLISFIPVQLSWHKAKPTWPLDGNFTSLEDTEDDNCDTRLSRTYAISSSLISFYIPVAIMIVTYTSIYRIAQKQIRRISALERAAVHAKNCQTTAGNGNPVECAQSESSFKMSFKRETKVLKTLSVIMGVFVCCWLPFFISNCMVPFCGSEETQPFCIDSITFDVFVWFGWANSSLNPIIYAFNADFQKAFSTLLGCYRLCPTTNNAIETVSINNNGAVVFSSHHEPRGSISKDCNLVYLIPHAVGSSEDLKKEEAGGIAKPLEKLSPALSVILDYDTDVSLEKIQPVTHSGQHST
Sequence of dopamine D-2 receptor (P61169 whole entry): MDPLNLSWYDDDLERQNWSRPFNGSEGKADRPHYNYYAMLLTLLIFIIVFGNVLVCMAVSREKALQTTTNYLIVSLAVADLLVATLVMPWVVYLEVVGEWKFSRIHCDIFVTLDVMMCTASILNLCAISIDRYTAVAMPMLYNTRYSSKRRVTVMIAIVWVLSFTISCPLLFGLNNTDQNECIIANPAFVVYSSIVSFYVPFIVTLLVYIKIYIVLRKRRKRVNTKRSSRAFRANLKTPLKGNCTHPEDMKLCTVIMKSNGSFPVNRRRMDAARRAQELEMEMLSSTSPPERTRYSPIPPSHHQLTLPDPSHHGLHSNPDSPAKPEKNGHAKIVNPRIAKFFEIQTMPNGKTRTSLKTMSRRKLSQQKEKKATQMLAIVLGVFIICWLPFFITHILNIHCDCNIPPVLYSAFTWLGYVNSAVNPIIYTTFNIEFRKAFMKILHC

Broadly, the Ki is a measure of affinity in units of concentration, obtained from inhibition or displacement. A word on the EC50: it is the concentration giving half of the maximal effect. On to `NC[C@H]1O[C@@H](COc2ccccc2)Cc2c1ccc(O)c2O` (relative stereo) [Example 55], for which, in test [1], the Ki came out at 1500 nM. In addition, in test [2], the “ED50 s.c. (rotation behavior)” value is recorded as 13.6 µmol/kg. Besides, in test [3], the “Intrinsic Activity (adenylate cyclase assay)” value (shortened to “Intrinsic Activity”) was determined as 51 and the EC50 is 24 nM. The affinity in test [4], expressed as Ki, was 380 nM.
Take `CCCCCCCC[C@@H]1Cc2c(ccc(O)c2O)[C@H](CN)O1` (relative stereo) [Example 64]: the Ki in test [1] worked out at 540 nM. For the same compound, the “ED50 s.c. (rotation behavior)” value in test [2] is given as 58 µmol/kg. In test [3], the “Intrinsic Activity” value is 80 and the 50% effective concentration (EC50) amounted to 390 nM. Moreover, the Ki in test [4] was 640 nM.
With `NC[C@@H]1O[C@H](CC2CCCCC2)Cc2c1ccc(O)c2O` (relative stereo) [Example 88], the Ki in test [1] was determined as 1500 nM. Besides, in test [2], the “ED50 s.c. (rotation behavior)” value was found to be 0.61 µmol/kg and the “ED50 oral (rotation behavior)” value came out at 32 µmol/kg. Besides, in test [3], the “Intrinsic Activity” value amounted to 133 and the EC50 worked out at 12 nM. Also, the affinity in test [4], expressed as Ki, was 130 nM.
Consider `CC(C)C[C@@H]1Cc2c(ccc(O)c2O)[C@H](CN)O1` (relative stereo) [Example 89], for which the Ki in test [1] worked out at 1400 nM. Moreover, in test [2], the “ED50 s.c. (rotation behavior)” value came out at 0.12 µmol/kg and the “ED50 oral (rotation behavior)” value worked out at 7 µmol/kg. Moreover, in test [3], the “Intrinsic Activity” value is reported as 130 and the EC50 was determined as 7 nM. The compound also yielded a Ki in test [4] of 21 nM.
Consider `NC[C@@H]1O[C@H](CC23CC4CC(CC(C4)C2)C3)Cc2c1ccc(O)c2O` (relative stereo) [Example 90], for which the Ki in test [1] amounted to 900 nM. In test [2], the “ED50 s.c. (rotation behavior)” value was determined as 0.6 µmol/kg and the “ED50 oral (rotation behavior)” value came to 8 µmol/kg. In addition, in test [3], the “Intrinsic Activity” value is given as 128 and the half-maximal effective concentration (EC50) amounted to 22 nM. The Ki in test [4] was 76 nM.
Take `CC(C)(C)C[C@H]1Cc2c(ccc(O)c2O)[C@@H](CN)O1` (relative stereo) [Example 104]: the Ki in test [1] is greater than 10000 nM. Moreover, in test [2], the “ED50 s.c. (rotation behavior)” value was 0.13 µmol/kg and the “ED50 oral (rotation behavior)” value is recorded as 5 µmol/kg. Also, in test [3], the “Intrinsic Activity” value was found to be 110 and the EC50 amounted to 54 nM. In addition, the Ki in test [4] turned out to be 37 nM.
Regarding `C=CC(C)[C@H]1Cc2c(ccc(O)c2O)[C@@H](CN)O1` (relative stereo) [Example 105], in test [1], the Ki was determined as 1000 nM. Moreover, the “ED50 s.c. (rotation behavior)” value in test [2] came to 0.17 µmol/kg. In test [3], the “Intrinsic Activity” value is 110 and the concentration giving a half-maximal response (EC50) is 9 nM. This compound displayed a Ki in test [4] of 17 nM.
Consider `CNC[C@@H]1O[C@H](CC23CC4CC(CC(C4)C2)C3)Cc2c1ccc(O)c2O` (relative stereo) [Example 139], for which the inhibition constant (Ki) in test [1] is 3200 nM. In addition, in test [2], the “ED50 s.c. (rotation behavior)” value was determined as 0.4 µmol/kg and the “ED50 oral (rotation behavior)” value is on record as 23 µmol/kg. Further, in test [3], the “Intrinsic Activity” value is 129 and the concentration giving a half-maximal response (EC50) worked out at 9.7 nM. In test [4], this compound displayed a Ki of 450 nM.
For `CNC[C@H]1O[C@@H](CC(C)(C)C)Cc2c1ccc(O)c2O` (relative stereo) [Example 146], the Ki in test [1] was 1400 nM. In test [2], the “ED50 s.c. (rotation behavior)” value worked out at 0.12 µmol/kg and the “ED50 oral (rotation behavior)” value was 7 µmol/kg. In addition, in test [3], the “Intrinsic Activity” value is 82 and the EC50 is 120 nM. Also, affinity in test [4] was put at a Ki of 49 nM.
As for `CC1([C@@H]2Cc3c(ccc(O)c3O)[C@H](CN)O2)CCCCC1` (relative stereo) [Example 222], the Ki in test [1] worked out at 3200 nM. In test [2], the “ED50 s.c. (rotation behavior)” value worked out at 0.3 µmol/kg. In test [3], the “Intrinsic Activity” value came out at 87 and the half-maximal effective concentration (EC50) was 40 nM. In test [4], this compound showed a Ki of 10 nM.
With `NC[C@@H]1O[C@H](C2(c3ccccc3)CCCCC2)Cc2c1ccc(O)c2O` (relative stereo) [Example 223], the inhibition constant (Ki) in test [1] is 2700 nM; in test [4], 40 nM. Besides, the “ED50 s.c. (rotation behavior)” value in test [2] was greater than 3 µmol/kg. Further, the “Intrinsic Activity” value in test [3] is recorded as 52. For the same compound, the 50% effective concentration (EC50) in test [3] stood at 70 nM.
For the compound `CNC[C@@H]1O[C@H](C2(c3ccccc3)CCCCC2)Cc2c1ccc(O)c2O` (relative stereo) [Example 225], the inhibition constant (Ki) in test [1] was 1700 nM. In addition, in test [2], the “ED50 s.c. (rotation behavior)” value is on record as greater than 3 µmol/kg. Besides, in test [3], the “Intrinsic Activity” value is 76 and the EC50 worked out at 130 nM. The compound also came in with an inhibition constant (Ki) in test [4] of 90 nM.
Turning to `CNC[C@@H]1O[C@H](C2(C)CCCCC2)Cc2c1ccc(O)c2O` (relative stereo) [Example 226], the Ki in test [1] turned out to be 1500 nM; in test [4], 20 nM. The “ED50 s.c. (rotation behavior)” value in test [2] is on record as greater than 1 µmol/kg. Also, the “Intrinsic Activity” value in test [3] came to 89. Also, in test [3], the concentration giving a half-maximal response (EC50) was 40 nM.
Take `CN(C)C[C@@H]1O[C@H](c2ccccc2)Cc2c1ccc(O)c2O` (relative stereo) [Example 227]: the Ki in test [1] is greater than 10000 nM. In addition, in test [2], the “ED50 s.c. (rotation behavior)” value turned out to be 0.045 µmol/kg. Further, in test [3], the “Intrinsic Activity” value is given as 94 and the concentration for a half-maximal effect (EC50) stood at 370 nM. The compound also came in with a Ki in test [4] of 20 nM.
For the compound `CN(C)C[C@@H]1O[C@H](C2CCCCC2)Cc2c1ccc(O)c2O` (relative stereo) [Example 228], in test [1], the inhibition constant (Ki) is greater than 10000 nM. The “ED50 s.c. (rotation behavior)” value in test [2] is reported as 0.1 µmol/kg. In test [3], the “Intrinsic Activity” value was 71 and the EC50 was 280 nM. For the same compound, the affinity in test [4] corresponds to a Ki of 30 nM.
In the case of `C=CCNC[C@H]1O[C@@H](c2ccccc2)Cc2c1ccc(O)c2O` (stereo in doubt) [Example 126], in test [1], the inhibition constant (Ki) worked out at 6600 nM. Further, in test [2], the “ED50 s.c. (rotation behavior)” value stood at 0.16 µmol/kg and the “ED50 oral (rotation behavior)” value was determined as 28 µmol/kg. In addition, in test [3], the “Intrinsic Activity” value came to 94 and the EC50 is 46 nM. Further, the affinity in test [4] corresponds to a Ki of 160 nM.
Turning to `NCC1OC2(CCCCCC2)Cc2c1ccc(O)c2O` (stereo not drawn) [Example 93], the inhibitory constant (Ki) in test [1] is greater than 10000 nM. Also, the “ED50 s.c. (rotation behavior)” value in test [2] is recorded as 0.9 µmol/kg. In addition, in test [3], the “Intrinsic Activity” value is on record as 113 and the EC50 was 110 nM. In addition, affinity in test [4] was put at a Ki of 470 nM.
Turning to `CNC[C@@H]1O[C@H](C(C)(C)C)Cc2c1ccc(O)c2O.Cl` [Example 112, [1R,3S]3-t-butyl-5,6-dihydroxy-1-methylaminomethyl-3,4-dihydro-1H-2-benzopyran hydrochloride], the inhibition constant (Ki) in test [1] was found to be 1500 nM. Besides, in test [2], the “ED50 s.c. (rotation behavior)” value was 0.10 µmol/kg and the “ED50 oral (rotation behavior)” value was determined as 1.0 µmol/kg. Further, in test [3], the “Intrinsic Activity” value was 124 and the 50% effective concentration (EC50) came out at 8 nM. This compound also came in with a Ki in test [4] of 38 nM.
As for `CNC[C@@H]1O[C@H](c2ccccc2)Cc2c1ccc(O)c2O` [Example 138], in test [1], the Ki is 2200 nM. Besides, the “ED50 s.c. (rotation behavior)” value in test [2] came out at 0.15 µmol/kg. For the same compound, in test [3], the “Intrinsic Activity” value is recorded as 157 and the EC50 was determined as 51 nM. For the same compound, in test [4], the affinity, expressed as Ki, was 3 nM.
On the same counts, the results for `CNC[C@@H]1O[C@H](C23CC4CC(CC(C4)C2)C3)Cc2c1cc(F)c(O)c2O` [Example 145] are 12000 nM, 0.31 µmol/kg, 49, 38 nM and 67 nM.

Source of the values: patent publication US5621133A (priority 1995, dated 1997).
